Experimental data reported in patent publication US7238701B2, “Substituted tetrahydrobenzothienopyrimidinamine compounds useful for treating hyper-proliferative disorders” (Bayer Pharmaceuticals Corporation, priority 2003, dated 2007).

How the values were obtained:
[1] = test system: A431cells (human epidermoid carcinoma); assay: In vitro tumor cell proliferation assay (Cell Titer-Glo luminescent cell viability), A431 cells; format: cell-based; conditions: A-431, 72 h, 72 hours drug exposure, 10% Fetal Bovine Serum, ATP luminescence readout, read-out: IC50 (50% inhibition of cell proliferation)
Excerpt: (§1) In vitro Tumor Cell Proliferation Assay
(§2) The tumor cell proliferation assay used to test the compounds of the present invention involves a readout called Cell Titer-Glow® Luminescent Cell Viability Assay developed by Promega (Cunningham, B A “A Growing Issue: Cell Proliferation Assays, Modern kits ease quantification of cell growth” The Scientist 2001, 15(13), 26, and Crouch, S P et al., “The use of ATP bioluminescence as a measure of cell proliferation and cytotoxicity” Journal of Immunological Methods 1993, 160, 81–88), that measures inhibition of cell proliferation. Generation of a luminescent signal corresponds to the amount of ATP present, which is directly proportional to the number of metabolically active (proliferating) cells.
(§3) A431cells (human epidermoid carcinoma, ATCC # HTB-20) and BT474 (human breast carcinoma, ATCC # CRL-1555) were plated at a density of 2.5×10^3 cells/well in 96 well black-clear bottom tissue culture plates in RPMI media with 10% Fetal Bovine Serum and incubated at 37° C. Twenty-four hours later, test compounds are added at a final concentration range from as high 100 μM to as low 64 pM depend on the activities of the tested compounds in serial dilutions at a final DMSO concentration of 0.1%. Cells were incubated for 72 hours at 37° C. in complete growth media after addition of the test compound. After 72 hours of drug exposure, the plates were equilibrated to room temperature for approximately 30 min. Then, using a Promega Cell Titer Glo Luminescent® assay kit, lysis buffer containing 100 microliters of the enzyme luciferase and its substrate, luciferin mixture, was added to each well. The plates were mixed for 2 min on orbital shaker to ensure cell lysis and incubated for 10 min at room temperature to stabilize luminescence signal. The samples were read on VICTOR 2 using Luminescence protocol, and analyzed with Analyze5 software to generate IC50 values.

[2] = test system: BT474 (human breast carcinoma); assay: In vitro tumor cell proliferation assay (Cell Titer-Glo luminescent cell viability), BT474 cells; format: cell-based; conditions: BT-474, 72 hours drug exposure, 10% Fetal Bovine Serum, ATP luminescence readout, read-out: IC50 (50% inhibition of cell proliferation)
Excerpt: as §1, §2, §3

Row | IC50 [1] [µM] | IC50 [2] [µM] | Structure (SMILES)
1 | < 5 | < 5 | COCCCNCCC1CCc2c(sc3ncnc(Nc4ccc(OCc5ccccn5)c(Cl)c4)c23)C1 (stereo not shown) [Example 195, N-[3-chloro-4-(pyridin-2-ylmethoxy)phenyl]-7-{2-[(3-methoxypropyl)amino]ethyl}-5,6,7,8-tetrahydro[1]benzothieno[2,3-d]pyrimidin-4-amine]
2 | < 50 | < 5 | Cc1ccc(Oc2ccc(Nc3ncnc4sc5c(c34)CCC(CCN3CCCCC3)C5)cc2C)cn1 (stereo not shown) [Example 236, N-{3-methyl-4-[(6-methylpyridin-3-yl)oxy]phenyl}-7-(2-piperidin-1-ylethyl)-5,6,7,8-tetrahydro[1]benzothieno[2,3-d]pyrimidin-4-amine]
3 | < 50 | < 50 | CS(=O)(=O)CCNC(=O)CC1CCc2c(sc3ncnc(Nc4ccc(OCc5ccc(F)cc5)c(Cl)c4)c23)C1 (stereo not shown) [Example 147, 2-[4-({3-chloro-4-[(4-fluorobenzyl)oxy]phenyl}amino)-5,6,7,8-tetrahydro[1]benzothieno[2,3-d]pyrimidin-7-yl]-N-[2-(methylsulfonyl)ethyl]acetamide]
4 | < 5 | < 5 | COCCNC(=O)CC1CCc2c(sc3ncnc(Nc4ccc(F)c(Cl)c4)c23)C1 (stereo not shown) [Example 62, 2-{4-[(3-chloro-4-fluorophenyl)amino]-5,6,7,8-tetrahydro[1]benzothieno[2,3-d]pyrimidin-7-yl}-N-(2-methoxyethyl)acetamide]
5 | < 5 | < 5 | Fc1ccc(COc2ccc(Nc3ncnc4sc5c(c34)CCC(CCN3CCCC3)C5)cc2Cl)cc1 (stereo not shown) [Example 153, N-{3-chloro-4-[(4-fluorobenzyl)oxy]phenyl}-7-(2-pyrrolidin-1-ylethyl)-5,6,7,8-tetrahydro[1]benzothieno[2,3-d]pyrimidin-4-amine]
6 | < 50 | < 50 | CCOC(=O)C1CCc2c(sc3ncnc(Nc4cccc(O)c4)c23)C1 (stereo not shown) [Example 40, Ethyl 4-[(3-hydroxyphenyl)amino]-5,6,7,8-tetrahydro[1]benzothieno[2,3-d]pyrimidine-7-carboxylate]
7 | < 5 | < 5 | CS(=O)(=O)OCCC1CCc2c(sc3ncnc(Nc4ccc5c(cnn5Cc5ccccc5)c4)c23)C1 (stereo not shown) [Example 202, 2-{4-[(1-benzyl-1H-indazol-5-yl)amino]-5,6,7,8-tetrahydro[1]benzothieno[2,3-d]pyrimidin-7-yl}ethyl methanesulfonate]
8 | < 50 | < 50 | C=CC1(O)CCc2c(sc3ncnc(Nc4ccc(F)c(Cl)c4)c23)C1 (stereo not shown) [Example 201, 4-[(3-chloro-4-fluorophenyl)amino]-7-vinyl-5,6,7,8-tetrahydro[1]benzothieno[2,3-d]pyrimidin-7-ol]
9 | < 50 | < 5 | Cc1ccc(Oc2ccc(Nc3ncnc4sc5c(c34)CCC(CCN3C(C)CCC3C)C5)cc2C)cn1 (stereo not shown) [Example 235]
10 | < 50 | < 50 | COCCN(C)C(=O)C1CCc2c(sc3ncnc(Nc4ccc(F)c(Cl)c4)c23)C1 (stereo not shown) [Example 8, 4-[(3-chloro-4-fluorophenyl)amino]-N-(2-methoxyethyl)-N-methyl-5,6,7,8-tetrahydro[1]benzothieno[2,3-d]pyrimidine-7-carboxamide]
11 | < 50 | < 5 | CNCCC1CCc2c(sc3ncnc(Nc4ccc(Oc5ccc(C)nc5)c(C)c4)c23)C1 (stereo not shown) [Example 232, 7-[2-(methylamino)ethyl]-N-{3-methyl-4-[(6-methylpyridin-3-yl)oxy]phenyl}-5,6,7,8-tetrahydro[1]benzothieno[2,3-d]pyrimidin-4-amine]
12 | < 5 | < 5 | Clc1cc(Nc2ncnc3sc4c(c23)CCC(CCNCCN2CCOCC2)C4)ccc1OCc1ccccn1 (stereo not shown) [Example 192, N-[3-chloro-4-(pyridin-2-ylmethoxy)phenyl]-7-{2-[(2-morpholin-4-ylethyl)amino]ethyl}-5,6,7,8-tetrahydro[1]benzothieno[2,3-d]pyrimidin-4-amine]
13 | < 50 | < 5 | CCOC(=O)C1CCc2c(sc3ncnc(Nc4ccc(Cl)cc4F)c23)C1 (stereo not shown) [Example 42, Ethyl 4-[(4-chloro-2-fluorophenyl)amino]-5,6,7,8-tetrahydro[1]benzothieno[2,3-d]pyrimidine-7-carboxylate]
14 | < 5 | < 5 | CN1CCN(C(=O)CC2CCc3c(sc4ncnc(Nc5ccc(OCc6ccc(F)cc6)c(Cl)c5)c34)C2)CC1 (stereo not shown) [Example 150, N-{3-chloro-4-[(4-fluorobenzyl)oxy]phenyl}-7-[2-(4-methylpiperazin-1-yl)-2-oxoethyl]-5,6,7,8-tetrahydro[1]benzothieno[2,3-d]pyrimidin-4-amine]
15 | < 5 | < 50 | COCCN(C)C(=O)CC1CCc2c(sc3ncnc(Nc4cccc(Br)c4)c23)C1 (stereo not shown) [Example 83, 2-{4-[(3-bromophenyl)amino]-5,6,7,8-tetrahydro[1]benzothieno[2,3-d]pyrimidin-7-yl}-N-(2-methoxyethyl)-N-methylacetamide]
16 | < 50 | < 50 | CN(C)[C@@H]1CCN(CCC2CCc3c(sc4ncnc(Nc5ccc(F)c(Cl)c5)c34)C2)C1 (stereo partly drawn) [Example 100, N-(3-chloro-4-fluorophenyl)-7-{2-[(3R)-3-(dimethylamino)-1-pyrrolidinyl]ethyl}-5,6,7,8-tetrahydro[1]benzothieno[2,3-d]pyrimidin-4-amine]
17 | < 50 | < 50 | COCCNC(=O)CC1CCc2c(sc3ncnc(Nc4ccc(OCc5ccc(F)cc5)c(Cl)c4)c23)C1 (stereo not shown) [Example 146, 2-[4-({3-chloro-4-[(4-fluorobenzyl)oxy]phenyl}amino)-5,6,7,8-tetrahydro[1]benzothieno[2,3-d]pyrimidin-7-yl]-N-(2-methoxyethyl)acetamide]
18 | < 50 | < 5 | COCCNCCC1CCc2c(sc3ncnc(Nc4ccc(Oc5ccc(C)nc5)c(C)c4)c23)C1 (stereo not shown) [Example 216, 7-{2-[(2-methoxyethyl)amino]ethyl}-N-{3-methyl-4-[(6-methylpyridin-3-yl)oxy]phenyl}-5,6,7,8-tetrahydro[1]benzothieno[2,3-d]pyrimidin-4-amine]
19 | < 50 | < 50 | CCOC(=O)CC1CCc2c(sc3ncnc(Nc4ccc(F)c(Cl)c4)c23)C1 (stereo not shown) [Example 57, ethyl {4-[(3-chloro-4-fluorophenyl)amino]-5,6,7,8-tetrahydro[1]benzothieno[2,3-d]pyrimidin-7-yl}acetate]
20 | < 5 | < 5 | CN(C)[C@H]1CCN(CCC2CCc3c(sc4ncnc(Nc5ccc(OCc6ccc(F)cc6)c(Cl)c5)c34)C2)C1 (stereo partly drawn) [Example 157, N-{3-chloro-4-[(4-fluorobenzyl)oxy]phenyl}-7-{2-[(3S)-3-(dimethylamino)pyrrolidin-1-yl]ethyl}-5,6,7,8-tetrahydro[1]benzothieno[2,3-d]pyrimidin-4-amine]
21 | < 5 | < 5 | Fc1cccc(COc2ccc(Nc3ncnc4sc5c(c34)CCC(CCn3ccnc3)C5)cc2Cl)c1 (stereo not shown) [Example 170, N-{3-chloro-4-[(3-fluorobenzyl)oxy]phenyl}-7-[2-(1H-imidazol-1-yl)ethyl]-5,6,7,8-tetrahydro[1]benzothieno[2,3-d]pyrimidin-4-amine]
22 | < 5 | < 5 | Fc1cccc(COc2ccc(Nc3ncnc4sc5c(c34)CCC(CCN3CCCC3)C5)cc2Cl)c1 (stereo not shown) [Example 161, N-{3-chloro-4-[(3-fluorobenzyl)oxy]phenyl}-7-(2-pyrrolidin-1-ylethyl)-5,6,7,8-tetrahydro[1]benzothieno[2,3-d]pyrimidin-4-amine]
23 | < 50 | < 50 | CCOC(=O)CC1CCc2c(sc3ncnc(Nc4cccc(Br)c4)c23)C1 (stereo not shown) [Example 63, ethyl {4-[(3-bromophenyl)amino]-5,6,7,8-tetrahydro[1]benzothieno[2,3-d]pyrimidin-7-yl}acetate]
24 | < 5 | < 5 | Fc1ccc(Nc2ncnc3sc4c(c23)CCC(CN2CCCCC2)C4)cc1Cl (stereo not shown) [Example 4, N-(3-chloro-4-fluorophenyl)-7-(1-piperidinylmethyl)-5,6,7,8-tetrahydro[1]benzothieno[2,3-d]pyrimidin-4-amine]
25 | < 50 | < 50 | O=C(CC1CCc2c(sc3ncnc(Nc4ccc(OCc5ccc(F)cc5)c(Cl)c4)c23)C1)N1CCOCC1 (stereo not shown) [Example 144, N-{3-chloro-4-[(4-fluorobenzyl)oxy]phenyl}-7-(2-morpholin-4-yl-2-oxoethyl)-5,6,7,8-tetrahydro[1]benzothieno[2,3-d]pyrimidin-4-amine]
26 | < 50 | < 50 | O=C(O)CC1CCc2c(sc3ncnc(Nc4cccc(Br)c4)c23)C1 (stereo not shown) [Example 65, {4-[(3-bromophenyl)amino]-5,6,7,8tetrahydro[1]benzothieno[2,3-d]pyrimidin-7-yl}acetic acid]
